From patent US20230165970A1, “COMPOSITIONS AND METHODS FOR THE TREATMENT OF BACTERIAL INFECTIONS” (priority 2017, published 2023)
*1 amine or outer side, *2 acyl side, *3 side chain or, on linkers, in order; H or OH if unused. Where a SMILES comes first, the peptide text is derived from it. Bridges are numbered along the chain shown (N, C = ends). [ ]: non-standard residue; d: D form. The star is where a group is joined. X10 = O=C([C@@H](N[*:1])[C@H](O)CCc1ccccc1)[*:2]; Propargyl(OCH2CH2)4CO = C#CCOCCOCCOCCOCCC(=O)*; X11 = CCCCCCCC[C@@H](O)[C@H](N[*:1])C(=O)[*:2]; X1 = CCCCCC[C@@H](O)[C@H](N[*:1])C(=O)[*:2]; X3 = CCCCC[C@@H](O)[C@H](N[*:1])C(=O)[*:2]; Nle = CCCC[C@H](N)C(=O)O; Dab = NCC[C@H](N)C(=O)O; azaGly = NNC(=O)O

Each compound was assayed on LPS from E. coli O111:B4 (assay: LPS binding/neutralization by Limulus Amebocyte Lysate (LAL) assay). Conditions: LPS 1-10,000 ng/mL, test article 0.25-10 μM; sum of AUCs relative to maximal AUC (Table 14).
Type: biochemical
Method: The LAL assay (Charles River) was used to determine the binding affinity of test articles to LPS.
(§1) For the assay, 25 μL purified LPS from E. coli O111:1B4 (Sigma) at doses ranging from 1-10,000 ng/mL were incubated with 25 μL of test article at concentrations ranging from 0.25-10 NM. After 5 min incubation at 37° C., 50 μL of LAL reagent, which reacts with lipid A portion from LPS, was added to corresponding wells. After 15 min, absorbance at 405 nm was read on EnSpire plate reader (Perkin Elmer). The % LPS neutralization is calculated relative to a PBS control (background) and LPS control at each concentration (positive control).
LPS neutralization=(1−(absorbance test article−PBS with LAL reagent)/(absorbance no test article−PBS with LAL reagent))×100
To obtain a single value of LPS neutralization for each test article, the area under the curve (AUC) for dose-response of test articles from […] for each LPS concentration was calculated using Prism 7 software. The % LPS neutralization is the sum of the AUCs for each LPS concentration determined relative to the maximal AUC achievable×100.
as §1, with “O111:B4” for “O111:1B4”, “μM.” for “NM.”

Row | Compound | % LPS neutralization of TM [%]
1 | C#CCOCCOCCOCCOCCC(=O)N[C@@H](CCN)C(=O)N[C@H](C(=O)N[C@@H](CCN)C(=O)N[C@H]1CCNC(=O)[C@H]([C@@H](C)O)NC(=O)[C@H](CCN)NC(=O)[C@H](CCN)NC(=O)[C@H](CC(C)C)NC(=O)[C@@H](Cc2ccccc2)NC(=O)[C@H](CCN)NC1=O)[C@H](O)CCc1ccccc1 [Int-83] ({Propargyl(OCH2CH2)4CO}-[Dab][X10][Dab][Dab][Dab][dF]L[Dab][Dab]T; lactam 4-C) | 30.9
2 | C#CCOCCOCCOCCOCCC(=O)N[C@@H](CCCC)C(=O)N[C@@H](CCN)C(=O)N[C@H](C(=O)N[C@@H](CCN)C(=O)N[C@H]1CCNC(=O)[C@H]([C@@H](C)O)NC(=O)[C@H](CCN)NC(=O)[C@H](CCN)NC(=O)[C@H](CC(C)C)NC(=O)[C@@H](Cc2ccccc2)NC(=O)[C@H](CCN)NC1=O)[C@H](O)CCCCC [Int-94] ({Propargyl(OCH2CH2)4CO}-[Nle][Dab][X3][Dab][Dab][Dab][dF]L[Dab][Dab]T; lactam 5-C) | 79.3
3 | C#CCOCCOCCOCCOCCC(=O)N[C@@H](CCCC)C(=O)N[C@@H](CCN)C(=O)N[C@H](C(=O)NNC(=O)N[C@H]1CCNC(=O)[C@H]([C@@H](C)O)NC(=O)[C@H](CCN)NC(=O)[C@H](CCN)NC(=O)[C@H](CC(C)C)NC(=O)[C@@H](Cc2ccccc2)NC(=O)[C@H](CCN)NC1=O)[C@H](O)CCCCC [Int-100] ({Propargyl(OCH2CH2)4CO}-[Nle][Dab][X3][azaGly][Dab][Dab][dF]L[Dab][Dab]T; lactam 5-C) | 38.9
4 | C#CCOCCOCCOCCOCCC(=O)N[C@@H](CCN)C(=O)N[C@H](C(=O)N[C@@H](CCN)C(=O)N[C@H]1CCNC(=O)[C@H]([C@@H](C)O)NC(=O)[C@H](CCN)NC(=O)[C@H](CCN)NC(=O)[C@H](CC(C)C)NC(=O)[C@@H](Cc2ccccc2)NC(=O)[C@H](CCN)NC1=O)[C@H](O)CCCCCCCC [Int-84] ({Propargyl(OCH2CH2)4CO}-[Dab][X11][Dab][Dab][Dab][dF]L[Dab][Dab]T; lactam 4-C) | 53.7
5 | C#CCOCCOCCOCCOCCC(=O)N[C@@H](CCCC)C(=O)N[C@@H](CCN)C(=O)N[C@H](C(=O)N[C@@H](CCN)C(=O)N[C@H]1CCNC(=O)[C@H]([C@@H](C)O)NC(=O)[C@H](CCN)NC(=O)[C@H](CCN)NC(=O)[C@H](CC(C)C)NC(=O)[C@@H](Cc2ccccc2)NC(=O)[C@H](CCN)NC1=O)[C@H](O)CCCCCC [Int-80] ({Propargyl(OCH2CH2)4CO}-[Nle][Dab][X1][Dab][Dab][Dab][dF]L[Dab][Dab]T; lactam 5-C) | 55.7

Same assay, conditions: LPS 1-10,000 ng/mL, test article 0.25-10 μM; sum of AUCs relative to maximal AUC (Table 15)

Row | Compound | % LPS neutralization [%]
6 | colistin sulfate | 9.21
